# Source: article PMC8041284, “Tunable Methacrylamides for Covalent Ligand Directed Release Chemistry” (Journal of the American Chemical Society, 2021)
# Where two headings read alike, the source gives them in different places. Where a SMILES comes first, the peptide text is derived from it. [ ]: non-standard residue; d: D form. The star is where a group is joined. Benzoyl(4-tBu) = CC(C)(C)c1ccc(C(=O)*)cc1; Lys(Et2) = CCN(CC)CCCC[C@H](N)C(=O)O
# Molecular target: BTK (Homo sapiens, UniProt Q06187)
# Assay: biochemical
# [1] = read-out: BTK inhibition (%), 0.75 uM BTK, […] probe 3l, 15 min preincubation
# BTK, sequence (Q06187 402-655 limits assumed): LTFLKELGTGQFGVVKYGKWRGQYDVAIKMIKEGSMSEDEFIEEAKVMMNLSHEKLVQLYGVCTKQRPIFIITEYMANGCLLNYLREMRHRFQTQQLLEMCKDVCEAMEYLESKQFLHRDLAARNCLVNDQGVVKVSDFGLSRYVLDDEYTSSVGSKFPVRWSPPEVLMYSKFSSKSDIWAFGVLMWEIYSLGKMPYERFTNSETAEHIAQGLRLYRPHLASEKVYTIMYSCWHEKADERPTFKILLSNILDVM
Compound,inhibition at 10 µM [1] [%],inhibition at 10 µM (read-out: BTK inhibition (%)) [%]
C[C@H](NC(=O)C(=O)Nc1ccccc1C(C)(C)C)C(=O)N[C@@H](CC(=O)O)C(=O)COc1c(F)c(F)cc(F)c1F [PCM-0215672],-17.9,
O=C(c1ccc(Cl)cc1Cl)n1nnc2ccccc21 [PCM-0215673],17,
Cc1cccc(Oc2cnc(=O)[nH]c2)c1 [PCM-0215674],-17,
CO[C@@H](C)Cn1c(=O)n(C)c2cnc3ccc(-c4cncc(C(C)(C)O)c4)cc3c21 [PCM-0215675],-11,
CCOP(=O)(OCC)C(=Cc1cc(C(C)(C)C)c(O)c(C(C)(C)C)c1)P(=O)(OCC)OCC [PCM-0215676],,-11.6
CCCc1cc(-c2nc(-c3ccc(C)cc3)cs2)ccn1 [PCM-0215677],6.9,
CC(=O)Nc1nc(-c2cccc(NS(=O)(=O)c3cccc4c(N(C)C)cccc34)c2)cs1 [PCM-0215679],97.3,
CC[C@H](C)[C@H](NC(=O)[C@H]([C@@H](C)CC)N(C)C(C)=O)C(=O)N[C@H](C(=O)N[C@@H](CC(C)C)C(=O)[C@@]1(C)CO1)[C@@H](C)O [PCM-0215680],23.9,
O=C1C2CCN(CC2)C1(CO)CO [PCM-0215683],0.8,
CCn1c(=O)c(-c2ccc(Cl)cc2Cl)cc2cnc(Nc3ccc(N4CCNCC4)c(F)c3)nc21 [PCM-0215684],87.6,
O=S(=O)(O)c1ccc2cc(N=Nc3cc(S(=O)(=O)O)c4cccnc4c3O)ccc2c1 [PCM-0215685],54.1,
COc1cc2c(cc1OC)CN(C(=O)/C=C/c1c(-c3ccccc3)n(C)c3ncccc13)CC2 [PCM-0215686],37.8,
Cn1c(-c2ccccc2C(F)(F)F)nnc1C12CCC(c3noc(C4CC(F)(F)C4)n3)(CC1)CC2 [PCM-0215687],-17,
OC[C@H]1O[C@@H](O[C@H]2[C@H](O)[C@@H](O)C(O)O[C@@H]2CO)[C@H](O)[C@@H](O)[C@@H]1O (stereo partly shown) [PCM-0215689],-3.4,
N[C@@H](CCC(=O)O)C(=O)O [PCM-0215690],10.2,
CCOC(=O)/C=C\C(=O)OCC [PCM-0215691],10.1,
O=C(Nc1nccs1)C(c1cc(F)ccc1O)N1Cc2ccccc2C1=O (stereo not shown) [PCM-0215692],13.8,
CC(C)=CC[C@@H](O)C1=CC(=O)c2c(O)ccc(O)c2C1=O [PCM-0215694],69.7,
CCCCOc1nc(N)c2c(n1)N(Cc1cccc(CN3CCCC3)c1)CC(=O)N2 [PCM-0215695],17,
O=C(O)CCN1C(=O)/C(=C/c2ccc(-c3ccc([N+](=O)[O-])cc3)o2)SC1=S [PCM-0215696],59.5,
CCn1nc(C2CCN(C(=O)CCO)CC2)nc1-c1cnc(N)c(-c2nnc(C(C)(C)C)o2)n1 [PCM-0215697],9.7,
COc1ccc(Cn2c3ncnc4c(ncn4Cc4ccc(OC)cc4)c-3nc2=O)cc1 [PCM-0215699],7.7,
CC(C)(C)NC(=O)c1cncn1C1CCN(c2ccc(-c3nnc(C(F)(F)F)o3)cn2)CC1 [PCM-0215700],-12.4,
O=C(Nc1cnn2ccc(N3CCC[C@@H]3c3cc(F)ccc3F)nc12)N1CC[C@H](O)C1 [PCM-0215701],-9,

Compound,inhibition at 10 µM [1] [%],inhibition at 10 µM (read-out: BTK inhibition (%)) [%]
Cn1c(=O)cc(C(=O)Nc2ccc3c(c2)OCCO3)c2ccccc21 [PCM-0215702],-3.9,
Cc1cc2c3c([n+](C)c4ccc(F)cc4c3c1)-c1cc(F)ccc1N2C [PCM-0215703],13.1,
COc1cc2ncnc(Nc3ccc(Oc4ccccc4)cc3C)c2cc1OC [PCM-0215704],110,
O=[N+]([O-])c1ccc(Sc2cccc[n+]2[O-])c2nonc12 [PCM-0215705],73.4,
OCCOCCN1CCN(Cc2cccc(Oc3ccccc3)c2)CC1 [PCM-0215707],13.1,
CCn1c(C(=O)N(C2CC2)C2CC2)cc2c3c(ncn3C)c(Nc3cc(C)n(C)n3)nc21 [PCM-0215708],3.4,
Cc1cn(CCN2CCN(c3ccccc3-c3cc(C#N)cc(C(=O)NCCCN4CCCC4)c3)CC2)c2ccccc12 [PCM-0215709],27,
CNCC(=O)O [PCM-0215710],-11.1,
O=C(O)C(O)C(O)C(=O)O (stereo not shown) [PCM-0215711],-0.9,
CC(C)OC(=O)CCC/C=C\C[C@@H]1[C@@H](CC[C@@H](O)CCc2ccccc2)[C@H](O)C[C@@H]1O [PCM-0215712],-13.1,
CN[C@H]1CN(c2ccc3c(=O)c(C(=O)O)cn(-c4nccs4)c3n2)C[C@@H]1OC [PCM-0215713],-17,
Nc1nccc(Oc2ccc3c(C(=O)Nc4cccc(C(F)(F)F)c4)cccc3c2)n1 [PCM-0215714],-2.8,
O=C(O)c1ccc(-c2ccc(/C=C3\SC(=S)N(Cc4ccccc4)C3=O)o2)cc1 [PCM-0215715],11.6,
C[C@@H]1CC(=O)Nc2cccc(-c3ccc4c(c3)c(-c3cnn(C)c3)nn4C)c2N1 [PCM-0215716],1.5,
COC(=O)[C@H](CC(C)C)NC(=O)c1ccc(NC[C@@H](N)CS)cc1-c1cccc2ccccc12 [PCM-0215717],-79.5,
Cn1c(=O)c(Oc2ccc(F)cc2F)cc2cnc(NC(CCO)CCO)nc21 [PCM-0215718],-30.3,
O=C(NCCCn1ccnc1)c1cc(-c2ccco2)on1 [PCM-0215720],-9.3,
Cl[Te]1(Cl)(Cl)OCCO1 [PCM-0215721],,98.6
CCN(CC)C[C@@H](O)CNc1ccc(NC[C@H]2CO2)c2c1C(=O)c1ccccc1C2=O [PCM-0215722],57.9,
COc1cc2c(cc1OC(C)C)[C@H](c1ccc(Cl)cc1)N(c1ccc(N(C)CC3CCC(N4CCN(C)C(=O)C4)CC3)cc1)C(=O)C2 (stereo partly shown) [PCM-0215723],57.9,
O=C(Nc1cccc(C(F)(F)F)c1)c1cccc2cc(Oc3cc(CO)ncn3)ccc12 [PCM-0215724],-0.7,
COc1cc(C(=O)N(CCCc2ccccc2)Cc2ccc(CC(=O)O)cc2)cc(OC)c1C [PCM-0215725],16.2,
CN(C)C(=O)CCSC(SCCC(=O)O)c1cccc(/C=C/c2ccc3ccc(Cl)cc3n2)c1 (stereo not shown) [PCM-0215726],10.8,
C[C@@H]1Cc2c([nH]c3ccccc23)[C@@H](c2c(F)cc(/C=C/C(=O)O)cc2F)N1CC(C)(C)F [PCM-0215727],30.9,

Compound,inhibition at 10 µM [1] [%],inhibition at 10 µM (read-out: BTK inhibition (%)) [%]
Oc1cc(CNC(=S)/C=C/c2cc(O)c(O)c(Br)c2)cc(O)c1O [PCM-0215728],43.4,
Cc1ccc(Nc2cc(N[C@@H]3CCCC[C@@H]3N)nnc2C(N)=O)nc1C [PCM-0215730],79.3,
Cc1nnsc1C(=O)Nc1ccc(-n2nc(C(F)(F)F)cc2C(F)(F)F)cc1 [PCM-0215731],22.4,
N#C/C(=C(\O)c1ccc(Cl)cc1Cl)c1nc2ccccc2c(=O)[nH]1 [PCM-0215733],-6.9,
Cc1cc(Nc2ncnc3ccc(NC4=NC(C)(C)CO4)cc23)ccc1Oc1ccn2ncnc2c1 [PCM-0215734],71.7,
CC(C)c1c(-c2ccccc2)nc2c(C#N)c[nH]n2c1=O [PCM-0215735],24.7,
Cc1ccc(C(=O)Nc2ccc(Oc3cc4cnn(C)c4cc3-c3cn[nH]c3)c(F)c2)c(=O)n1-c1ccc(F)cc1 [PCM-0215736],105,
CC1(C)OCCn2c1nc1c(N3CCOCC3)nc(-c3cnc(N)nc3)nc12 [PCM-0215737],37.9,
Cc1ccc(NS(=O)(=O)c2ccc3c(c2)C2C=CCC2C(c2ccc(C(=O)O)cc2)N3)cc1C (stereo not shown) [PCM-0215738],92.7,
CCCNC(=O)[C@H]1O[C@@H]1C(=O)N[C@H](C(=O)N1CCC[C@H]1C(=O)OC)[C@@H](C)CC [PCM-0215739],-31.7,
CS(=O)(=O)Nc1ccc([N+](=O)[O-])cc1OC1CCCCC1 [PCM-0215740],3.4,
CCN(CC)CCCC[C@H](NC(=O)[C@H](CC(C)C)NC(=O)[C@H](C)NC(=O)[C@H](Cc1ccccc1)NC(=O)c1ccc(C(C)(C)C)cc1)C(=O)N[C@@H](CO)C(=O)OC [PCM-0215741] ({Benzoyl(4-tBu)}-FAL[Lys(Et2)]S-OMe),-16.2,
O=C(O)[C@@]1(CCCCCCOc2ccc(Cl)cc2)CO1 [PCM-0215742],-1.5,
CCN1C(=O)CNc2ncc(-c3ccc(-c4ncn[nH]4)nc3C)nc21 [PCM-0215743],11.7,
CCNC(=O)Nc1ccc(-c2nc(N3CCOC[C@@H]3C)c3c(n2)C(C)(C)S(=O)(=O)C3)cc1 [PCM-0215744],-22.8,
CN1c2ccccc2C(=O)Nc2cnc(Nc3ccc(N4CCC(O)CC4)cc3)nc21 [PCM-0215745],93.8,
Fc1ccc2c(/C=C/c3nn[nH]n3)c[nH]c2c1 [PCM-0215746],4.6,
COc1ccc(-c2nc(-c3cc(C(F)(F)F)cc(C(F)(F)F)c3)n(Cc3ccc(C(N)=O)cc3)c2-c2ccc(OC)cc2)cc1 [PCM-0215748],57.1,
C[C@@H](N)c1ccc(C(=O)Nc2ccnc3[nH]ccc23)cc1 [PCM-0215750],-30.3,
COCC1(CO)C(=O)C2CCN1CC2 (stereo not shown) [PCM-0215751],0,
Cn1cc(C(=O)Nc2ccc3c(c2)OCCO3)c2ccccc2c1=O [PCM-0215752],6.9,
COc1ccc(CC(=O)Nc2nc3c(s2)CCc2ccccc2-3)cc1OC [PCM-0215753],55.9,
